In article PMC7101356, “Cross-site and cross-platform variability of automated patch clamp assessments of drug effects on human cardiac currents in recombinant cells” (Scientific Reports, 2020):

Key:
[1] = biological target: hCav1.2 (Homo sapiens, UniProt Q13936); experiment: Automated patch clamp, hCav1.2 current block
[2] = biological target: T1, hERG (Homo sapiens, UniProt Q12809); experiment: Automated patch clamp, hERG current block (consensus step-ramp protocol); conditions: for hERG K+ current inhibition, Mean, at maximal concentration: max conc [mol/L]: bep 3.00E-07, cpz 3.00E-06, cis 3.00E-07, dil 1.00E-04, dof 1.00E-07, mex 1.00E-04, ond 1.00E-05, qui 1.00E-05, ran 1.00E-04, sot 3.00E-04, ter 3.00E-07, ver 1.00E-06; for hERG K+ current inhibition, Mean, at minimal concentration: min conc [mol/L]: bep 1.00E-08, cpz 1.00E-07, cis 1.00E-09, dil 3.00E-06, dof 1.00E-09, mex 1.00E-06, ond 3.00E-07, qui 1.00E-07, ran 3.00E-06, sot 1.00E-05, ter 1.00E-08, ver 3.00E-08
T1 sequence (Q12809 whole entry): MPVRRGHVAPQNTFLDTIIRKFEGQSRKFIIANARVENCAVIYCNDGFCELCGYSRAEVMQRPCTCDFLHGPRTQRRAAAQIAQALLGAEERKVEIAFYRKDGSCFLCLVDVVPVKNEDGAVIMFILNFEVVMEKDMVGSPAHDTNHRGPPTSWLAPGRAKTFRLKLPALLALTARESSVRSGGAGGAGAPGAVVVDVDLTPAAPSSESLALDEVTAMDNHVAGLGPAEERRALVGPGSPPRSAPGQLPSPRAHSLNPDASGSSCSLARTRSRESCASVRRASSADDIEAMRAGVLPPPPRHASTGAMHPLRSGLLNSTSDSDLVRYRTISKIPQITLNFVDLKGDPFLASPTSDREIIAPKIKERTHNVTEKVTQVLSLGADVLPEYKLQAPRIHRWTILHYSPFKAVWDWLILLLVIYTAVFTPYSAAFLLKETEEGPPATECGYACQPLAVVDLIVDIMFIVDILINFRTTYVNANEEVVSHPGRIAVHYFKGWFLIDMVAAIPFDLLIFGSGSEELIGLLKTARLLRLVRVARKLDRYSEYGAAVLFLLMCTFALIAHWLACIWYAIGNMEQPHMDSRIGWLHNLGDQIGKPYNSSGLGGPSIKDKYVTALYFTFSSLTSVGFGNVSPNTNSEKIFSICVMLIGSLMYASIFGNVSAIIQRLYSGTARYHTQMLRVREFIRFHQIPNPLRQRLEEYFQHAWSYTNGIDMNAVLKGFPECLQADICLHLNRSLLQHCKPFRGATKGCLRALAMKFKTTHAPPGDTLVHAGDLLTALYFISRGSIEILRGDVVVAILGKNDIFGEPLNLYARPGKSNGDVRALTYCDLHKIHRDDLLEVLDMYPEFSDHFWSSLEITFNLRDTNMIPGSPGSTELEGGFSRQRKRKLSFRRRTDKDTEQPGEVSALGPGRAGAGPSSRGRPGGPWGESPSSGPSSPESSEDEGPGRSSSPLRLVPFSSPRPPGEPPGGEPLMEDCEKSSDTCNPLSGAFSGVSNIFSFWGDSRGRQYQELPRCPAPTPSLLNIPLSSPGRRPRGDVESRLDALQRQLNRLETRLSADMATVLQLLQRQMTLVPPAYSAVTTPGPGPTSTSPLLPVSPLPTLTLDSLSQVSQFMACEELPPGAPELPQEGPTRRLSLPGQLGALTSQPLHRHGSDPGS

[3] = biological target: T1, hERG; experiment: Automated patch clamp, hERG current block, Milnes protocol (site s06); type: cell-based; set-up: expressed in transfected cells; host or cells: HEK293 or CHO, depending on site (site s06, Milnes protocol: HEK293); conditions: s06_p4, HEK293, 22–24 °C
Excerpt: Thus, a single test site (s06) elicited hERG current with a 10-s depolarizing voltage step from −80 mV to 0 mV every 25 s (Milnes protocol, see Milnes et al.[14]).
The steady state current at each concentration was used to determine the concentration-response relationships. Mean concentration-response data were fitted to a standard sigmoidal four-parameter logistic equation (GraphPad Prism 7; GraphPad Inc., La Jolla, CA) of the form: Y=Bottom+(Top−Bottom)/(1+10^∧(LogIC50−X)∗HillSlope) where Y is the current inhibition (in % of pre-drug control), X is the logarithm of drug concentration, and IC50 is the drug concentration producing half-maximal current inhibition. Curve fitting was performed using the following constraints: Top = 100%, Bottom = 0%, Hill Slope <2. No curve fitting was performed in cases with an obvious lack of a concentration-dependent current inhibition and/or small effect size (approximately ≤20%).
This protocol consists of a set of two 25-s-long pulse protocols, with one protocol (“Pulse”) containing a prolonged 10-s-long depolarizing test pulse (0 mV) followed by a 14-s-long return pulse to −80 mV, and a second protocol “No-Pulse” consisting of the same pulse structure without the depolarizing test pulse[18].

[4] = s03_p2, HEK293, room temperature
[5] = s16_p3, HEK293, room temperature

Chain of hCav1.2 (Q13936 whole entry): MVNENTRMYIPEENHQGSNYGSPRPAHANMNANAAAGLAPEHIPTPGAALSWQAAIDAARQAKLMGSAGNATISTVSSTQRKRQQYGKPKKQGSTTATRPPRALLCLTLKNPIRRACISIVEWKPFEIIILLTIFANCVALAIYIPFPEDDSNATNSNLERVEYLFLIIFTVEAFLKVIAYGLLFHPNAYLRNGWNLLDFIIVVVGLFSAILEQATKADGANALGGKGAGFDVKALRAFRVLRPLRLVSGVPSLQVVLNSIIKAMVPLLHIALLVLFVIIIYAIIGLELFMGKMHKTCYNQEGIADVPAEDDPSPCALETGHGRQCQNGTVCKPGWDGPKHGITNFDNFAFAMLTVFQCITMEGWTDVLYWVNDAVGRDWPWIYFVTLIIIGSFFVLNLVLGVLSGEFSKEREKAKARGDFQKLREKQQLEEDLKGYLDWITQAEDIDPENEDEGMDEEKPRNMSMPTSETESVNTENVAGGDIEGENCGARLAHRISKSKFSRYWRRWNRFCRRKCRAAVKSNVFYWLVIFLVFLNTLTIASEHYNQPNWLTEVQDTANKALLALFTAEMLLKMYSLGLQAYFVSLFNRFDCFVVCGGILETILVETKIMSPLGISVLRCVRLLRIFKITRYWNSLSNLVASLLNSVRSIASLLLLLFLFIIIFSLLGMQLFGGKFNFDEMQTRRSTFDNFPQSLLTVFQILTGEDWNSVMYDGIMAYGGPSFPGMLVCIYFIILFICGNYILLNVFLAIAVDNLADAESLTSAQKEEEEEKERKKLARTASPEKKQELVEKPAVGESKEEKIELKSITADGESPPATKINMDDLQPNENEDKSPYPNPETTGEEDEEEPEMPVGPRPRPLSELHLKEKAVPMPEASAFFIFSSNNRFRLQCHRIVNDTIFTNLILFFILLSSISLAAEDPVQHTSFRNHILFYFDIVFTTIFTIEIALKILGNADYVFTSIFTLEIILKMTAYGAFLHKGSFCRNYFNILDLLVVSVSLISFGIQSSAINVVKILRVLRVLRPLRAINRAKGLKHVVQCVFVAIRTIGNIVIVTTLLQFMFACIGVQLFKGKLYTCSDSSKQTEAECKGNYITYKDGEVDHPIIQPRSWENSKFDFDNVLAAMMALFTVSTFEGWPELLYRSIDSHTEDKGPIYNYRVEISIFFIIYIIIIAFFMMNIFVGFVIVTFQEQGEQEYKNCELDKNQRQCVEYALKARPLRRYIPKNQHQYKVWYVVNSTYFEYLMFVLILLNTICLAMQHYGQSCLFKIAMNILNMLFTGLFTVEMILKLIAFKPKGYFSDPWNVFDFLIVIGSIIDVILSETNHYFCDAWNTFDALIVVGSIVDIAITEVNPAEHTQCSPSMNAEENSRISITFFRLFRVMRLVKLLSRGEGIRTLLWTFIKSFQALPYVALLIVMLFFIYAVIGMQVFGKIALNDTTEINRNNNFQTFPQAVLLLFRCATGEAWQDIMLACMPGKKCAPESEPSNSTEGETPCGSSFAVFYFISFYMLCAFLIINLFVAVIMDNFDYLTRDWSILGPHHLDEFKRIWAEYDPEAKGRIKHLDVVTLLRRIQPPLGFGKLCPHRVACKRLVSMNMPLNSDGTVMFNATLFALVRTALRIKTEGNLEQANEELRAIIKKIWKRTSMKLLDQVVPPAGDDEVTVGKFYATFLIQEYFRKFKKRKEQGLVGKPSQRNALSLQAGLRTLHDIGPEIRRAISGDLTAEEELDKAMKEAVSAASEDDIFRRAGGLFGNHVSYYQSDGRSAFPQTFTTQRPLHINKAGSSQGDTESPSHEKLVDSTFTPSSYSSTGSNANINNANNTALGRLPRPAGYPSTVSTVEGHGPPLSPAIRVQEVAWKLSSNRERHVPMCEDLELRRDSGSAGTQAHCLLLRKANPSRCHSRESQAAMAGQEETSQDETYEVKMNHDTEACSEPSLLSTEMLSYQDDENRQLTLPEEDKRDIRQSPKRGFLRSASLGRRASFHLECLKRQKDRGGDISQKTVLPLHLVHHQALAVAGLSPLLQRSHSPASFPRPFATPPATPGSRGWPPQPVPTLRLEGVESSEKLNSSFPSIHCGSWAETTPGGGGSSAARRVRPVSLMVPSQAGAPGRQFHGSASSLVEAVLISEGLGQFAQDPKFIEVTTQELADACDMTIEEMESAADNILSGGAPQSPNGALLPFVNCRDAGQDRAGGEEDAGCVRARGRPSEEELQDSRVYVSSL
Chain of hCav1.2 (Q08289 whole entry partner): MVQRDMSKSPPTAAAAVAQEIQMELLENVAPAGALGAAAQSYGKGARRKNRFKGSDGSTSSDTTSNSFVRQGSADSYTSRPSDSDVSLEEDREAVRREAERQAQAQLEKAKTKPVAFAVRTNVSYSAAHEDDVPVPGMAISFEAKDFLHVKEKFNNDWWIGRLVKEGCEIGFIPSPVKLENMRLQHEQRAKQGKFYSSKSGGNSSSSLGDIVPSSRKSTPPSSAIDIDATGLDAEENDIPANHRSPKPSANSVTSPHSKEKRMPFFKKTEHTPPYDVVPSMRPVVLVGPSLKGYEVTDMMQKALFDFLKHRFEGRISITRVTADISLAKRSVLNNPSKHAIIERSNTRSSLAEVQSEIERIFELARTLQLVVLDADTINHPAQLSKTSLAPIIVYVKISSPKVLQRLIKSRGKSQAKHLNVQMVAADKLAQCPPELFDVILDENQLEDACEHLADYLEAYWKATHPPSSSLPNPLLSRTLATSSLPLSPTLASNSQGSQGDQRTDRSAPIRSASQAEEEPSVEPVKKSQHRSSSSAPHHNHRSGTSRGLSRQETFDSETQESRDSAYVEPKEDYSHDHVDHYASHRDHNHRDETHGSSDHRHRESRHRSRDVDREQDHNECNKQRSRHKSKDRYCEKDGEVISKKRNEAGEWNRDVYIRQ
Chain of hCav1.2 (P54289 25-956 partner limits assumed): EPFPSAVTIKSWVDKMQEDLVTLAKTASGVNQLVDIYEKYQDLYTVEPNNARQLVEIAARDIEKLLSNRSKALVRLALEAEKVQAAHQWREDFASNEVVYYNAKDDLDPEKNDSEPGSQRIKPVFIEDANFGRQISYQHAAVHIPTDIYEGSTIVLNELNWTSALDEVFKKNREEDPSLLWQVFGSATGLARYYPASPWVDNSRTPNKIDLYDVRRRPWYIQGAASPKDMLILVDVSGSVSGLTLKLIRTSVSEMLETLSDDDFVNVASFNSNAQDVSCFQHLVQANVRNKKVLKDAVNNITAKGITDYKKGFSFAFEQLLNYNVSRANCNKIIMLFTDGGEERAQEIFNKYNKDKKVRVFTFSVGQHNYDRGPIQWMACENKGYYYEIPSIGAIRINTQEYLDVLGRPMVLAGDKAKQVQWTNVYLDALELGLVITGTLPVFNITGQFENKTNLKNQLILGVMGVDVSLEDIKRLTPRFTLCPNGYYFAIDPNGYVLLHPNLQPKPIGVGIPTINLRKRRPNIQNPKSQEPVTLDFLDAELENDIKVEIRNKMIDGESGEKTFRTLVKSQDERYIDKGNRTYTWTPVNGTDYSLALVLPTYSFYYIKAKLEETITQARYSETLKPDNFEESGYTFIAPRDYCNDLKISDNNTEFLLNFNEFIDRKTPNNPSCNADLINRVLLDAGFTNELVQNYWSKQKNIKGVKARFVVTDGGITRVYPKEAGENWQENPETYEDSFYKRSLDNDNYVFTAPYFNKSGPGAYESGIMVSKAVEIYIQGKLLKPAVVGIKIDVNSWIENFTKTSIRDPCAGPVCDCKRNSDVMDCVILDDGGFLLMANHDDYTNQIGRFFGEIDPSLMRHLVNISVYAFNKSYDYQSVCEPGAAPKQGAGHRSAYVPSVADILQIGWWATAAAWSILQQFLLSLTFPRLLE
Chain of hCav1.2 (P54289 957-1103 partner limits assumed): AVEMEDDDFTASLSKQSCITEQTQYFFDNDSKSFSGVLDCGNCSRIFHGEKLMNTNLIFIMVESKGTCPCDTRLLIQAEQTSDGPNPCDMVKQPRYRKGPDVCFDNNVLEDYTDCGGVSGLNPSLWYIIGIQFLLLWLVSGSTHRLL

Cc1nccn1CC1CCc2c(c3ccccc3n2C)C1=O (centres unmarked) [ond, ondansetron]
log IC50, half-maximal inhibitory concentration ([1]; site s01_p1): no inh. | Peak hCav1.2 Ca2+ current inhibition, Mean ([1]; site s01_p1, 3.00E-07 mol/L): 3.2% | log IC50, half-maximal inhibitory concentration ([1]; site s02_p2, corrected for rundown): no inh. | Peak hCav1.2 Ca2+ current inhibition, Mean ([1]; site s02_p2, corrected for rundown, 3.00E-07 mol/L): -6.3% | nH, Hill slope ([1]; site s04_p3): 0.60 | Peak hCav1.2 Ca2+ current inhibition, Mean ([1]; site s04_p3, 1.00E-05 mol/L): 16.1% | Peak hCav1.2 Ca2+ current inhibition, Mean ([1]; site s04_p3, 3.00E-07 mol/L): 2.6% | log IC50, half-maximal inhibitory concentration ([1]; site s06_p4): no inh. | Peak hCav1.2 Ca2+ current inhibition, Mean ([1]; site s06_p4, 3.00E-07 mol/L): 18.9% | log IC50, half-maximal inhibitory concentration ([1]; site s11_p1): no inh. | Peak hCav1.2 Ca2+ current inhibition, Mean ([1]; site s11_p1, 3.00E-07 mol/L): 19.7% | nH, Hill slope ([1]; site s14_p1): 2.00 | Peak hCav1.2 Ca2+ current inhibition, Mean ([1]; site s14_p1, 3.00E-07 mol/L): 4.0% | nH, Hill slope ([1]; site s16_p3): 0.42 | Peak hCav1.2 Ca2+ current inhibition, Mean ([1]; site s16_p3, 3.00E-07 mol/L): 20.6% | log IC50, half-maximal inhibitory concentration ([1]; site s18_p1): no inh. | Peak hCav1.2 Ca2+ current inhibition, Mean ([1]; site s18_p1, 3.00E-07 mol/L): 16.9% | inhibition at 1e-05 mol/L ([2]; human, recombinant cells expressing hERG, hERG K+ current inhibition, Mean, site_platform s07_p5, 1.00E-05 mol/L): 101% | inhibition at 3e-07 mol/L ([2]; human, recombinant cells expressing hERG, hERG K+ current inhibition, Mean, site_platform s07_p5, 3.00E-07 mol/L): 17% | inhibition at 4 min, 1e-05 mol/L ([2]; human, recombinant cells expressing hERG, hERG K+ current inhibition, Mean, site_platform s10_p3, 1.00E-05 mol/L): 71.8% | inhibition at 4 min, 3e-07 mol/L ([2]; human, recombinant cells expressing hERG, hERG K+ current inhibition, Mean, site_platform s10_p3, 3.00E-07 mol/L): 9.7% | inhibition at 7 min, 1e-05 mol/L ([2]; human, recombinant cells expressing hERG, hERG K+ current inhibition, Mean, site_platform s11_p1, 1.00E-05 mol/L): 89.6% | inhibition at 7 min, 3e-07 mol/L ([2]; human, recombinant cells expressing hERG, hERG K+ current inhibition, Mean, site_platform s11_p1, 3.00E-07 mol/L): 11.6% | inhibition at 1e-05 mol/L ([2]; human, recombinant cells expressing hERG, hERG K+ current inhibition, Mean, site_platform s12_p2, 1.00E-05 mol/L): 91.6% | inhibition at 3e-07 mol/L ([2]; human, recombinant cells expressing hERG, hERG K+ current inhibition, Mean, site_platform s12_p2, 3.00E-07 mol/L): 19.3% | inhibition at 1e-05 mol/L ([2]; human, recombinant cells expressing hERG, hERG K+ current inhibition, Mean, site_platform s13_p2, 1.00E-05 mol/L): 90% | inhibition at 3e-07 mol/L ([2]; human, recombinant cells expressing hERG, hERG K+ current inhibition, Mean, site_platform s13_p2, 3.00E-07 mol/L): 11.4% | inhibition at 7 min, 1e-05 mol/L ([2]; human, recombinant cells expressing hERG, hERG K+ current inhibition, Mean, site_platform s14_p1, 1.00E-05 mol/L): 89.4% | inhibition at 7 min, 3e-07 mol/L ([2]; human, recombinant cells expressing hERG, hERG K+ current inhibition, Mean, site_platform s14_p1, 3.00E-07 mol/L): 58.7% | hERG K+ current nH, Hill slope ([2]; s01_p1, CHO, 23 °C): 1.06 | hERG K+ current inhibition, Mean, at maximal concentration ([2]; s01_p1, CHO, 23 °C): 83.1% | hERG K+ current inhibition, Mean, at minimal concentration ([2]; s01_p1, CHO, 23 °C): 8.8% | hERG K+ current nH, Hill slope ([2]; s02_p2, HEK293, 22–26 °C): 1.07 | hERG K+ current inhibition, Mean, at maximal concentration ([2]; s02_p2, HEK293, 22–26 °C): 79.8% | hERG K+ current inhibition, Mean, at minimal concentration ([2]; s02_p2, HEK293, 22–26 °C): 6.1% | hERG K+ current nH, Hill slope [2, 4]: 1.08 | hERG K+ current inhibition, Mean, at maximal concentration [2, 4]: 99.9% | hERG K+ current inhibition, Mean, at minimal concentration [2, 4]: 37.2% | hERG K+ current nH, Hill slope ([2]; s04_p3, CHO, room temperature): 0.97 | hERG K+ current inhibition, Mean, at maximal concentration ([2]; s04_p3, CHO, room temperature): 90.6% | hERG K+ current inhibition, Mean, at minimal concentration ([2]; s04_p3, CHO, room temperature): 22.1% | hERG K+ current nH, Hill slope ([2]; s05_p4, HEK293, 22–24 °C): 1.32 | hERG K+ current inhibition, Mean, at maximal concentration ([2]; s05_p4, HEK293, 22–24 °C): 93.2% | hERG K+ current inhibition, Mean, at minimal concentration ([2]; s05_p4, HEK293, 22–24 °C): 9.6% | hERG K+ current nH, Hill slope ([2]; s15_p1, HEK293, 22–23 °C): 0.88 | hERG K+ current inhibition, Mean, at maximal concentration ([2]; s15_p1, HEK293, 22–23 °C): 87.4% | hERG K+ current inhibition, Mean, at minimal concentration ([2]; s15_p1, HEK293, 22–23 °C): 25.2% | hERG K+ current nH, Hill slope [2, 5]: 1.01 | hERG K+ current inhibition, Mean, at maximal concentration [2, 5]: 84.1% | hERG K+ current inhibition, Mean, at minimal concentration [2, 5]: 11.9% | hERG K+ current nH, Hill slope ([2]; s18_p1, CHO, 35 °C): 1.05 | hERG K+ current inhibition, Mean, at maximal concentration ([2]; s18_p1, CHO, 35 °C): 85.6% | hERG K+ current inhibition, Mean, at minimal concentration ([2]; s18_p1, CHO, 35 °C): 12.7% | hERG K+ current nH, Hill slope ([2]; s19_p3, CHO, room temperature): 1.01 | hERG K+ current inhibition, Mean, at maximal concentration ([2]; s19_p3, CHO, room temperature): 92.9% | hERG K+ current inhibition, Mean, at minimal concentration ([2]; s19_p3, CHO, room temperature): 25.8% | nH (Hill slope), hERG K+ current inhibition ([2]; site_platform s07_p5): 1.26 | nH (Hill slope), hERG K+ current inhibition ([2]; site_platform s10_p3): 0.98 | nH (Hill slope), hERG K+ current inhibition ([2]; site_platform s11_p1): 1.10 | nH (Hill slope), hERG K+ current inhibition ([2]; site_platform s12_p2): 1.03 | nH (Hill slope), hERG K+ current inhibition ([2]; site_platform s13_p2): 1.19 | nH (Hill slope), hERG K+ current inhibition ([2]; site_platform s14_p1): 0.47 | hERG K+ current nH, Hill slope [3]: 1.05 | hERG K+ current inhibition, Mean, at maximal concentration ([3]; max conc [mol/L]: bep 3.00E-07, cpz 3.00E-06, cis 3.00E-07, dil 1.00E-04, dof 1.00E-07, mex 1.00E-04, ond 1.00E-05, qui 1.00E-05, ran 1.00E-04, sot 3.00E-04, ter 3.00E-07, ver 1.00E-06): 95.5% | hERG K+ current inhibition, Mean, at minimal concentration ([3]; min conc [mol/L]: bep 1.00E-08, cpz 1.00E-07, cis 1.00E-09, dil 3.00E-06, dof 1.00E-09, mex 1.00E-06, ond 3.00E-07, qui 1.00E-07, ran 3.00E-06, sot 1.00E-05, ter 1.00E-08, ver 3.00E-08): 25.3%
